{"source": "paper PMC9830933", "about": "(European Journal of Medicinal Chemistry, 2023)", "key": {"Aqueous solubility": {"assay": "Aqueous solubility", "format": "physicochemical"}, "MHV-A59 [1]": {"system": "MHV-A59", "assay": "In vitro anti-MHV-A59 activity assay in L929 cells", "format": "cell-based, murine coronavirus mouse hepatitis virus A-59", "settings": "for potency relative to GS-441524 (MHV-A59 EC50), fold more potent: vs GS-441524 EC50 = 10.01 μM; for effect on cellular replication of MHV-A59 (in words): up to 200 μM"}, "MHV-A59 [2]": {"system": "MHV-A59", "assay": "Mouse MHV efficacy study", "format": "in vivo, BALB/c mice", "settings": "for viral titers (MHV-A59 RNA copies) in the liver (in words): mouse, in vivo"}, "FCoV": {"system": "FCoV", "settings": "intraperitoneal injection, FCoV-afflicted cats; cited from earlier work"}, "[3]": {"settings": "ATV041 10, 50, 200 mg/kg oral QD, 3 dpi"}}, "data": [{"smiles": "CC(C(=O)OC[C@H]1O[C@@](C#N)(c2ccc3c(N)ncnn23)[C@H](O)[C@@H]1O)c1cccc(Oc2ccccc2)c1", "note": "(stereo partly drawn) [ATV038, ((2R,3S,4R,5R)-5-(4-aminopyrrolo[2,1-f][1,2,4]triazin-7-yl)-5-cyano-3,4-dihydroxytetrahydrofuran-2-yl)methyl 2-(3-phenoxyphenyl)propanoate]", "values": [{"measurement": "aqueous solubility (in words)", "setting": "Aqueous solubility", "value": "slightly better solubility"}, {"measurement": "potency relative to GS-441524 (MHV-A59 EC50), fold more potent", "setting": "MHV-A59 [1]", "value": "about 8 fold"}]}, {"smiles": "COc1ccc2cc([C@H](C)C(=O)OC[C@H]3O[C@@](C#N)(c4ccc5c(N)ncnn45)[C@H](O)[C@@H]3O)ccc2c1", "note": "[ATV039, ((2R,3S,4R,5R)-5-(4-aminopyrrolo[2,1-f][1,2,4]triazin-7-yl)-5-cyano-3,4-dihydroxytetrahydrofuran-2-yl)methyl (S)-2-(6-methoxynaphthalen-2-yl)propanoate]", "values": [{"measurement": "aqueous solubility (in words)", "setting": "Aqueous solubility", "value": "slightly better solubility"}]}, {"smiles": "CC(C(=O)OC[C@H]1O[C@@](C#N)(c2ccc3c(N)ncnn23)[C@H](O)[C@@H]1O)c1cccc(C(=O)c2ccccc2)c1", "note": "(stereo partly drawn) [ATV040, ((2R,3S,4R,5R)-5-(4-aminopyrrolo[2,1-f][1,2,4]triazin-7-yl)-5-cyano-3,4-dihydroxytetrahydrofuran-2-yl)methyl 2-(3-benzoylphenyl)propanoate]", "values": [{"measurement": "aqueous solubility (in words)", "setting": "Aqueous solubility", "value": "significantly improved the solubility"}]}, {"smiles": "CC(C)Cc1ccc(C(C)C(=O)OC[C@H]2O[C@@](C#N)(c3ccc4c(N)ncnn34)[C@H](O)[C@@H]2O)cc1", "note": "(stereo partly drawn) [ATV041, ((2R,3S,4R,5R)-5-(4-aminopyrrolo[2,1-f][1,2,4]triazin-7-yl)-5-cyano-3,4-dihydroxytetrahydrofuran-2-yl)methyl 2-(4-isobutylphenyl)propanoate]", "values": [{"measurement": "aqueous solubility (in words)", "setting": "Aqueous solubility", "value": "slightly better solubility"}, {"measurement": "survival rate", "setting": "MHV-A59 [2]; 10 mg/kg oral QD, 23-day observation", "value": 100, "unit": "%"}, {"measurement": "pro-inflammatory factors in the lungs (in words)", "setting": "MHV-A59 [2]; 200 mg/kg oral QD, 3 dpi", "value": "considerably reduced to a level similar to the mock-infected mice"}, {"measurement": "liver histopathology (H&E) (in words)", "setting": "MHV-A59 [2]; 3 dpi", "value": "obvious remission effects"}, {"measurement": "lung histopathology (H&E) (in words)", "setting": "MHV-A59 [2]; 3 dpi", "value": "alleviated symptoms"}, {"measurement": "dose dependence of inhibition of viral replication in the liver (in words)", "setting": "MHV-A59 [2]; [3]", "value": "dose-dependently inhibited"}, {"measurement": "dose dependence of inhibition of viral replication in the lungs (in words)", "setting": "MHV-A59 [2]; [3]", "value": "dose-dependent inhibition"}, {"measurement": "viral titers (MHV-A59 RNA copies) in the liver (in words)", "setting": "MHV-A59 [2]", "value": "below the detection limit"}, {"measurement": "plasma ALT and AST (in words)", "setting": "MHV-A59 [2]; serum chemical analysis, 3 dpi", "value": "significantly reduced"}, {"measurement": "potency relative to GS-441524 (MHV-A59 EC50), fold more potent", "setting": "MHV-A59 [1]", "value": "about 8 fold"}]}, {"smiles": "N#C[C@@]1(c2ccc3c(N)ncnn23)O[C@H](COC(=O)Cc2ccccc2Nc2c(Cl)cccc2Cl)[C@@H](O)[C@H]1O", "note": "[ATV042, ((2R,3S,4R,5R)-5-(4-aminopyrrolo[2,1-f][1,2,4]triazin-7-yl)-5-cyano-3,4-dihydroxytetrahydrofuran-2-yl)methyl 2-(2-((2,6-dichlorophenyl)amino)phenyl)acetate]", "values": [{"measurement": "aqueous solubility (in words)", "setting": "Aqueous solubility", "value": "hardly soluble"}]}, {"smiles": "COc1ccc2c(c1)c(CC(=O)OC[C@H]1O[C@@](C#N)(c3ccc4c(N)ncnn34)[C@H](O)[C@@H]1O)c(C)n2C(=O)c1ccc(Cl)cc1", "note": "[ATV043, ((2R,3S,4R,5R)-5-(4-aminopyrrolo[2,1-f][1,2,4]triazin-7-yl)-5-cyano-3,4-dihydroxytetrahydrofuran-2-yl)methyl 2-(1-(4-chlorobenzoyl)-5-methoxy-2-methyl-1H-indol-3-yl)acetate]", "values": [{"measurement": "aqueous solubility (in words)", "setting": "Aqueous solubility", "value": "hardly soluble"}]}, {"smiles": "N#C[C@@]1(c2ccc3c(N)ncnn23)O[C@H](CO)[C@@H](O)[C@H]1O", "note": "[GS-441524, 1′-CN-4-aza-7,9-dideazaadenosine C-nucleoside, reference compound]", "values": [{"measurement": "viral titer / viral replication in the lungs (in words)", "setting": "MHV-A59 [2]; 100 mg/kg GS-441524 (B1) or 200 mg/kg ATV041 (C3), same molar concentration, oral QD, 3 dpi", "value": "about one order of magnitude"}, {"measurement": "lung histopathology (H&E) (in words)", "setting": "MHV-A59 [2]; 3 dpi", "value": "did not demonstrate protect effects"}, {"measurement": "viral titers (MHV-A59 RNA copies) in the liver (in words)", "setting": "MHV-A59 [2]", "value": "below the detection limit"}, {"measurement": "cure rate", "setting": "FCoV", "value": "up to 96%"}]}, {"smiles": "CC(C)Cc1ccc(C(C)C(=O)O)cc1", "note": "(centres unmarked) [Ibuprofen, reference compound]", "values": [{"measurement": "antiviral effect in lung and liver (in words)", "setting": "MHV-A59 [2]; ibuprofen 70 mg/kg oral QD dosed alone, 3 dpi", "value": "did not show an antiviral effect"}, {"measurement": "effect on cellular replication of MHV-A59 (in words)", "setting": "MHV-A59 [1]; Fig. S1", "value": "did not affect"}, {"measurement": "effect on cellular replication of MHV-A59 (in words)", "setting": "MHV-A59 [1]; Fig. S1, listed as ibuprofen", "value": "did not inhibit"}]}]}
